From patent US10766894B2, “Aza-indazole compounds for use in tendon and/or ligament injuries” (NOVARTIS AG, priority 2016, dated 2020)

test system: mouse immortalized TT-D6 Scx-luciferase (ScxL) cell line; transcriptional activation of Scleraxis (Scx) gene; assay: SCX-LUC in vitro assay (scleraxis promoter luciferase reporter); assay type: cell-based; settings: Mus musculus, 96 h; Examples table; TT-D6 Scx-luciferase cells, 1 ng/ml TGFβ1, four days; read-out: Scx-Luc (EC50 μM)

With Cc1cccc(S(=O)(=O)Nc2ccc(-c3ccc4[nH]nc(N)c4n3)c(Cl)c2)c1 [Example 84, N-(4-(3-amino-1H-pyrazolo[4,3-b]pyridin-5-yl)-3-chlorophenyl)-3-methylbenzenesulfonamide] as the molecule, how does the EC50 read?
The EC50 was 0.045 µM.

COc1ccc(S(=O)(=O)Nc2ccc(-c3ccc4[nH]nc(N)c4n3)c(Cl)c2)cc1 [Example 5, N-(4-(3-amino-1H-pyrazolo[4,3-b]pyridin-5-yl)-3-chlorophenyl)-4-methoxybenzenesulfonamide] was tested. Which EC50 did it give?
Its EC50 is 0.909 µM.

Which EC50 does the source give for Nc1n[nH]c2ccc(-c3ccc(S(=O)(=O)N[C@H]4CC[C@H](O)CC4)cc3Cl)nc12 [Example 45, 4-(3-amino-1H-pyrazolo[4,3-b]pyridin-5-yl)-3-chloro-N-((1r,4r)-4-hydroxycyclohexyl)benzenesulfonamide] here?
Its EC50 is 4.73 µM.

Nc1n[nH]c2ccc(-c3ccc(S(=O)(=O)N[C@H]4CC[C@@H](O)CC4)cc3Cl)nc12 [Example 48, 4-(3-amino-1H-pyrazolo[4,3-b]pyridin-5-yl)-3-chloro-N-((1s,4s)-4-hydroxycyclohexyl)benzenesulfonamide] was tested. Which EC50 did it give?
The EC50 was 2.02 µM.

Cc1cc(S(=O)(=O)N2CC(F)(F)C[C@H]2CO)ccc1-c1ccc2[nH]nc(N)c2n1 [Example 37, (S)-(1-((4-(3-amino-1H-pyrazolo[4,3-b]pyridin-5-yl)-3-methylphenyl)sulfonyl)-4,4-difluoropyrrolidin-2-yl)methanol] was tested. Which EC50 did it give?
Its EC50 is 0.593 µM.

For Nc1n[nH]c2ccc(-c3ccc(S(=O)(=O)Nc4cccc(Cl)c4Cl)cc3Cl)nc12 [Example 56, 4-(3-amino-1H-pyrazolo[4,3-b]pyridin-5-yl)-3-chloro-N-(2,3-dichlorophenyl)benzenesulfonamide], which EC50 is on record?
Its EC50 is 1.64 µM.

With Cc1cc(S(=O)(=O)N[C@H]2CC[C@](C)(O)CC2)ccc1-c1ccc2[nH]nc(N)c2n1 [Example 80, 4-(3-amino-1H-pyrazolo[4,3-b]pyridin-5-yl)-N-((1r,4r)-4-hydroxy-4-methylcyclohexyl)-3-methylbenzenesulfonamide] as the molecule, how does the EC50 read?
Its EC50 is 0.225 µM.

For Nc1n[nH]c2ccc(-c3ccc(S(=O)(=O)N4CC[C@@H](O)C4)cc3Cl)nc12 [Example 57, (R)-1-((4-(3-amino-1H-pyrazolo[4,3-b]pyridin-5-yl)-3-chlorophenyl)sulfonyl)pyrrolidin-3-ol], which EC50 is on record?
Its EC50 is 0.633 µM.

How did the EC50 turn out when Nc1n[nH]c2ccc(-c3ccc(NS(=O)(=O)[C@@H]4CCCC[C@@H]4O)cc3Cl)nc12 [Example 60, (1R,2S)—N-(4-(3-amino-1H-pyrazolo[4,3-b]pyridin-5-yl)-3-chlorophenyl)-2-hydroxycyclohexane-1-sulfonamide] was run?
The EC50 was 3.04 µM.

Which EC50 does the source give for Cc1cc(S(=O)(=O)N[C@H]2C[C@H](O)C2)ccc1-c1ccc2[nH]nc(N)c2n1 [Example 77, 4-(3-amino-1H-pyrazolo[4,3-b]pyridin-5-yl)-N-((1r,3r)-3-hydroxycyclobutyl)-3-methylbenzenesulfonamide] here?
Its EC50 is 0.777 µM.

Which EC50 does the source give for COc1ccc(S(=O)(=O)Nc2ccc(-c3ccc4[nH]nc(N)c4n3)c(Cl)c2)cc1OC [Example 79, N-(4-(3-amino-1H-pyrazolo[4,3-b]pyridin-5-yl)-3-chlorophenyl)-3,4-dimethoxybenzenesulfonamide] here?
The EC50 was 0.061 µM.

For Nc1n[nH]c2ccc(-c3ccc(NS(=O)(=O)c4ccc(C(F)(F)F)cc4)cc3Cl)nc12 [Example 78, N-(4-(3-amino-1H-pyrazolo[4,3-b]pyridin-5-yl)-3-chlorophenyl)-4-(trifluoromethyl)benzenesulfonamide], which EC50 is on record?
Its EC50 is 2.44 µM.

For Cc1cc(S(=O)(=O)NC2CCCCC2O)ccc1-c1ccc2[nH]nc(N)c2n1 (stereo not drawn) [Example 91, 4-(3-amino-1H-pyrazolo[4,3-b]pyridin-5-yl)-N-(2-hydroxycyclohexyl)-3-methylbenzenesulfonamide], which EC50 is on record?
The EC50 was 1.81 µM.

With Cc1cc(S(=O)(=O)N2CC(F)(F)CC2C(N)=O)ccc1-c1ccc2[nH]nc(N)c2n1 (stereo not drawn) [Example 34, 1-((4-(3-amino-1H-pyrazolo[4,3-b]pyridin-5-yl)-3-methylphenyl)sulfonyl)-4,4-difluoropyrrolidine-2-carboxamide] as the molecule, how does the EC50 read?
Its EC50 is 5.02 µM.

How did the EC50 turn out when NC(=O)[C@H]1C[C@@H](F)CN1S(=O)(=O)c1ccc(-c2ccc3[nH]nc(N)c3n2)c(Cl)c1 [Example 55, (2R,4R)-1-((4-(3-amino-1H-pyrazolo[4,3-b]pyridin-5-yl)-3-chlorophenyl)sulfonyl)-4-fluoropyrrolidine-2-carboxamide] was run?
The EC50 was 6.16 µM.

How did the EC50 turn out when Nc1n[nH]c2ccc(-c3ccc(S(=O)(=O)N[C@@H]4CCC[C@H]4O)cc3Cl)nc12 [Example 29, 4-(3-amino-1H-pyrazolo[4,3-b]pyridin-5-yl)-3-chloro-N-((1R,2R)-2-hydroxycyclopentyl)benzenesulfonamide] was run?
Its EC50 is 1.91 µM.

With Nc1n[nH]c2ccc(-c3ccc(S(=O)(=O)NC4(CO)CCCC4)cc3Cl)nc12 [Example 30, 4-(3-amino-1H-pyrazolo[4,3-b]pyridin-5-yl)-3-chloro-N-(1-(hydroxymethyl)cyclopentyl)benzenesulfonamide] as the molecule, how does the EC50 read?
The EC50 was 2.07 µM.

Nc1n[nH]c2ccc(-c3ccc(NS(=O)(=O)c4ccc(Cl)c(F)c4)cc3Cl)nc12 [Example 13, N-(4-(3-amino-1H-pyrazolo[4,3-b]pyridin-5-yl)-3-chlorophenyl)-4-chloro-3-fluorobenzenesulfonamide] was tested. Which EC50 did it give?
Its EC50 is 1.34 µM.

Which EC50 does the source give for Nc1n[nH]c2ccc(-c3ccc(NS(=O)(=O)[C@H]4CCCC[C@H]4O)cc3Cl)nc12 [Example 14, (1S,2R)—N-(4-(3-amino-1H-pyrazolo[4,3-b]pyridin-5-yl)-3-chlorophenyl)-2-hydroxycyclohexane-1-sulfonamide] here?
Its EC50 is 1.12 µM.

For Nc1n[nH]c2ccc(-c3ccc(S(=O)(=O)Nc4ccccc4)cc3F)nc12 [Example 49, 4-(3-amino-1H-pyrazolo[4,3-b]pyridin-5-yl)-3-fluoro-N-phenylbenzenesulfonamide], which EC50 is on record?
The EC50 was 0.87 µM.

How did the EC50 turn out when Cc1cc(NS(=O)(=O)c2cccc(F)c2)ccc1-c1ccc2[nH]nc(N)c2n1 [Example 33, N-(4-(3-amino-1H-pyrazolo[4,3-b]pyridin-5-yl)-3-methylphenyl)-3-fluorobenzenesulfonamide] was run?
Its EC50 is 1.02 µM.

Nc1n[nH]c2ccc(-c3ccc(S(=O)(=O)N4CC[C@H](O)C4)cc3Cl)nc12 [Example 71, (S)-1-((4-(3-amino-1H-pyrazolo[4,3-b]pyridin-5-yl)-3-chlorophenyl)sulfonyl)pyrrolidin-3-ol] was tested. Which EC50 did it give?
Its EC50 is 3.53 µM.

How did the EC50 turn out when COc1cccc(S(=O)(=O)Nc2ccc(-c3ccc4[nH]nc(N)c4n3)c(Cl)c2)c1 [Example 67, N-(4-(3-amino-1H-pyrazolo[4,3-b]pyridin-5-yl)-3-chlorophenyl)-3-methoxybenzenesulfonamide] was run?
Its EC50 is 2.32 µM.

Nc1n[nH]c2ccc(-c3ccc(NS(=O)(=O)c4ccc(F)c(Cl)c4)cc3Cl)nc12 [Example 27, N-(4-(3-amino-1H-pyrazolo[4,3-b]pyridin-5-yl)-3-chlorophenyl)-3-chloro-4-fluorobenzenesulfonamide] was tested. Which EC50 did it give?
Its EC50 is 1.08 µM.

Which EC50 does the source give for Nc1n[nH]c2ccc(-c3ccc(S(=O)(=O)NC4CC(F)(F)C4)cc3Cl)nc12 [Example 4, 4-(3-amino-1H-pyrazolo[4,3-b]pyridin-5-yl)-3-chloro-N-(3,3-difluorocyclobutyl)benzenesulfonamide] here?
The EC50 was 0.444 µM.

How did the EC50 turn out when CC(C)(C)NS(=O)(=O)c1ccc(-c2ccc3[nH]nc(N)c3n2)c(F)c1 [Example 75, 4-(3-amino-1H-pyrazolo[4,3-b]pyridin-5-yl)-N-tert-butyl-3-fluorobenzenesulfonamide] was run?
Its EC50 is 1.52 µM.

Which EC50 does the source give for Cc1cc(S(=O)(=O)N[C@@H]2CCC[C@@H]2O)ccc1-c1ccc2[nH]nc(N)c2n1 [Example 20, 4-(3-amino-1H-pyrazolo[4,3-b]pyridin-5-yl)-N-((1R,2S)-2-hydroxycyclopentyl)-3-methylbenzenesulfonamide] here?
Its EC50 is 0.797 µM.

Cc1cc(S(=O)(=O)NC2(CO)CCCC2)ccc1-c1ccc2[nH]nc(N)c2n1 [Example 26, 4-(3-amino-1H-pyrazolo[4,3-b]pyridin-5-yl)-N-(1-(hydroxymethyl)cyclopentyl)-3-methylbenzenesulfonamide] was tested. Which EC50 did it give?
The EC50 was 0.811 µM.

Which EC50 does the source give for Cc1ccc(S(=O)(=O)Nc2ccc(-c3ccc4[nH]nc(N)c4n3)c(Cl)c2)cc1 [Example 25, N-(4-(3-amino-1H-pyrazolo[4,3-b]pyridin-5-yl)-3-chlorophenyl)-4-methylbenzenesulfonamide] here?
The EC50 was 0.611 µM.

With Nc1n[nH]c2ccc(-c3ccc(S(=O)(=O)Nc4cccc(F)c4F)cc3Cl)nc12 [Example 81, 4-(3-amino-1H-pyrazolo[4,3-b]pyridin-5-yl)-3-chloro-N-(2,3-difluorophenyl)benzenesulfonamide] as the molecule, how does the EC50 read?
The EC50 was 0.203 µM.

Which EC50 does the source give for C[C@]1(O)CC[C@H](NS(=O)(=O)c2ccc(-c3ccc4[nH]nc(N)c4n3)c(Cl)c2)CC1 [Example 58, 4-(3-amino-1H-pyrazolo[4,3-b]pyridin-5-yl)-3-chloro-N-((1r,4r)-4-hydroxy-4-methylcyclohexyl)benzenesulfonamide] here?
Its EC50 is 1.51 µM.

How did the EC50 turn out when Cc1cc(S(=O)(=O)N2CCC[C@H]2CO)ccc1-c1ccc2[nH]nc(N)c2n1 [Example 70, (S)-(1-((4-(3-amino-1H-pyrazolo[4,3-b]pyridin-5-yl)-3-methylphenyl)sulfonyl)pyrrolidin-2-yl)methanol] was run?
Its EC50 is 0.762 µM.

With Nc1n[nH]c2ccc(-c3ccc(S(=O)(=O)Nc4cccc(F)c4)cc3Cl)nc12 [Example 40] as the molecule, how does the EC50 read?
Its EC50 is 0.416 µM.

same assay, conditions: Mus musculus, 96 h; Table 1; TT-D6 Scx-luciferase cells, 1 ng/ml TGFβ1, four days; read-out: Scx-Luc (EC50 uM)

Which EC50 does the source give for C1=C/COCc2cc(ccc2OCCN2CCCC2)Nc2nccc(n2)-c2cccc(c2)COC/1 [reference compound] here?
Its EC50 is 1.06 µM.

same assay, conditions: Mus musculus; further compounds not numbered as examples; read-out: EC50 in the Scx-Luc assay

Which EC50 does the source give for Nc1n[nH]c2ccc(-c3ccc(S(=O)(=O)N4CCC[C@H]4CO)cc3Cl)nc12 [(S)-(1-((4-(3-amino-1H-pyrazolo[4,3-b]pyridin-5-yl)-3-chlorophenyl)sulfonyl)pyrrolidin-2-yl)methanol] here?
The EC50 was > 10 µM.

same assay, conditions: further compounds not numbered as examples; read-out: EC50 in the Scx-Luc assay

Which EC50 does the source give for Nc1n[nH]c2ccc(-c3ccc(S(=O)(=O)NC4CCC(O)(C(F)(F)F)CC4)cc3Cl)nc12 [4-(3-amino-1H-pyrazolo[4,3-b]pyridin-5-yl)-3-chloro-N-((1R,4R)-4-hydroxy-4-(trifluoromethyl)cyclohexyl)benzenesulfonamide] here?
Its EC50 is > 10 µM.
